These results are taken from ChEMBL document CHEMBL5723379, “Affinity On-target Cellular Literature for EUbOPEN Chemogenomic Library” (2024).

For assay [1], the target named is T1, Peroxisome proliferator-activated receptor alpha (Homo sapiens, UniProt Q07869).
T1 sequence (Q07869 whole entry): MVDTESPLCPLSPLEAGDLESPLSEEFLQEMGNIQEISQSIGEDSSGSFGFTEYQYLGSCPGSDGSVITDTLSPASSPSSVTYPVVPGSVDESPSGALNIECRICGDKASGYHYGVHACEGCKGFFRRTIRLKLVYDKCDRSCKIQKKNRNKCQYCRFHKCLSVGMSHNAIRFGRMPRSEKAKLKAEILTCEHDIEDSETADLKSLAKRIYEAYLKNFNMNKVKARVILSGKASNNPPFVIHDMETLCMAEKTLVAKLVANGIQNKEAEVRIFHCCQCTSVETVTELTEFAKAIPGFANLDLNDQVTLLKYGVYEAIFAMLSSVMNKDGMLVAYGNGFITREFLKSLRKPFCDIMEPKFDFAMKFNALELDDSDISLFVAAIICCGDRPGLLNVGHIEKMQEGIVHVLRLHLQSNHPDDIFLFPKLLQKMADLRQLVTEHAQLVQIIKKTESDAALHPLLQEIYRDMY
Briefly: Affinity On-target Cellular interaction: (Reporter gene assay (HEK293T cells)) EUB0000581a PPARA. The format is functional, cell-based, HEK-293T. More on the design: mode of action Agonist, recommended concentration 1 uM. (In general: In a reporter assay the amount or activity of a reporter protein is the signal.)

Assay [2] deals with T1, Peroxisome proliferator-activated receptor alpha. Briefly: Affinity On-target Cellular interaction: (Reporter gene assay (HEK293T cells)) EUB0001144a PPARA. In kind it is functional, cell-based, HEK-293T. More on the design: mode of action Agonist, recommended concentration 1 uM.
Assay [3] deals with T2, Peroxisome proliferator-activated receptor gamma (Homo sapiens, UniProt P37231).
T2 sequence (P37231 whole entry): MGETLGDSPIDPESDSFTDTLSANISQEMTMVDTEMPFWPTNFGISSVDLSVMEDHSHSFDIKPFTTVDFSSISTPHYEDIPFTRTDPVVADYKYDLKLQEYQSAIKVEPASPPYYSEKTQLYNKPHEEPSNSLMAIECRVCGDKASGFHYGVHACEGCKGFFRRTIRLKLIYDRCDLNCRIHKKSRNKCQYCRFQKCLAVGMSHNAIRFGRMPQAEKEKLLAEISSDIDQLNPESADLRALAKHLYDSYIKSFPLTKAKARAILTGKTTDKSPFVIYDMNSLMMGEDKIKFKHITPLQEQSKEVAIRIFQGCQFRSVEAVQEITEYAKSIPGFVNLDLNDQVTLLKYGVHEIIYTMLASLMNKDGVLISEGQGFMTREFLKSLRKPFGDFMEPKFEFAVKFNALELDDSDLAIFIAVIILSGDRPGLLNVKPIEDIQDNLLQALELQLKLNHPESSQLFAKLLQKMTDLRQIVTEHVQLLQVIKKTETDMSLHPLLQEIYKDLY
Briefly: Affinity On-target Cellular interaction: (Reporter gene assay (HEK293T cells)) EUB0001144a PPARG. In kind it is functional, cell-based, HEK-293T. More on the design: mode of action Agonist, recommended concentration 1 uM.

For another assay, the target named is Bile acid receptor (Homo sapiens, UniProt Q96RI1). Briefly: Affinity On-target Cellular interaction: (Reporter gene assay (HEK293T cells)) EUB0000182b NR1H4. In kind it is functional, cell-based, HEK-293T. Set-up: mode of action Agonist, recommended concentration 1 uM.
The target in assay [4] is T3, Peroxisome proliferator-activated receptor delta (Homo sapiens, UniProt Q03181).
T3 sequence (Q03181 whole entry): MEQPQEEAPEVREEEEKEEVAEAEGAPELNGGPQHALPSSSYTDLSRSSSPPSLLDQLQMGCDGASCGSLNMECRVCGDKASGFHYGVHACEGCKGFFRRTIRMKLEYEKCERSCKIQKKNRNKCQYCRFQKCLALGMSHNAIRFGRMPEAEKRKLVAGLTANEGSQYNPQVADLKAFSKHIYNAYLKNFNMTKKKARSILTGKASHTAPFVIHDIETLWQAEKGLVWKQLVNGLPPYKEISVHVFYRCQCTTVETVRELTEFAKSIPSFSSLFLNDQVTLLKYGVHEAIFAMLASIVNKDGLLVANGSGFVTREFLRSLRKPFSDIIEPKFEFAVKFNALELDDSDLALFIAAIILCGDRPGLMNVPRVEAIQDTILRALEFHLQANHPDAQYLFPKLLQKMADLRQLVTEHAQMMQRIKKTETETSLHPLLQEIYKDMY
Briefly: Affinity On-target Cellular interaction: (Reporter gene assay (HEK293T cells)) EUB0001151a PPARD. The format is functional, cell-based, HEK-293T. Set-up: mode of action Antagonist, recommended concentration 1 uM.

In a further assay the target is Vitamin D3 receptor (Homo sapiens, UniProt P11473). Briefly: Affinity On-target Cellular interaction: (Reporter gene assay (HEK293T cells)) EUB0000582a VDR. In kind it is functional, cell-based, HEK-293T. More on the design: mode of action Agonist, recommended concentration 1 uM.
Assay [5] deals with T4, Oxysterols receptor LXR-alpha (Homo sapiens, UniProt Q13133).
T4 sequence (Q13133 whole entry): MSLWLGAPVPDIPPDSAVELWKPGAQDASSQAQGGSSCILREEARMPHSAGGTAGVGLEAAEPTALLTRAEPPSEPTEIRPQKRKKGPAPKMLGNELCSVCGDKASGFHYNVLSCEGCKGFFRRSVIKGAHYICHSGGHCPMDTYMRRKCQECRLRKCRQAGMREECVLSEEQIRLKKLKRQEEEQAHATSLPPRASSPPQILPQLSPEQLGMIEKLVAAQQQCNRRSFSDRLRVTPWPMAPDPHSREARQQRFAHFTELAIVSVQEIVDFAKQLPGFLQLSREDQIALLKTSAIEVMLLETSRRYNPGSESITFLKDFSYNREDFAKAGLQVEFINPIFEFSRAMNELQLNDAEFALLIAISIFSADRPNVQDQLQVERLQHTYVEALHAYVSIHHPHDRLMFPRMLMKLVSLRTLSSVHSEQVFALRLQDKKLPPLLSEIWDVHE
Briefly: Affinity On-target Cellular interaction: (Reporter gene assay (HEK293T cells)) EUB0000082b NR1H3. More on the design: mode of action Agonist, recommended concentration 3 uM. In kind it is functional, cell-based, HEK-293T.

Assay [6] has as its target T5, Oxysterols receptor LXR-beta (Homo sapiens, UniProt P55055).
T5 sequence (P55055 whole entry): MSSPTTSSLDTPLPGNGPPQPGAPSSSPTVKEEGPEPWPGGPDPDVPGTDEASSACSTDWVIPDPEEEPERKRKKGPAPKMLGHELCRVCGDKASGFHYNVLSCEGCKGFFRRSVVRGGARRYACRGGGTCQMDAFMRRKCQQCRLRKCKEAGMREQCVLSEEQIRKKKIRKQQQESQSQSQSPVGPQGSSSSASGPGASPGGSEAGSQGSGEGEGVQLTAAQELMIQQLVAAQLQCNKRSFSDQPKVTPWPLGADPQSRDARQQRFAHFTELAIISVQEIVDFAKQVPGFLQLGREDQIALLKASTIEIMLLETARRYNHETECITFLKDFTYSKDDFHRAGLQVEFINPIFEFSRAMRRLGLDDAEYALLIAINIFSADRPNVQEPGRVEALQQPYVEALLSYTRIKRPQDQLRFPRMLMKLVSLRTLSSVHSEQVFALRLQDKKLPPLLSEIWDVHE

Assay [7] has as its target T3, Peroxisome proliferator-activated receptor delta. Briefly: Affinity On-target Cellular interaction: (Reporter gene assay (HEK293T cells)) EUB0001141a PPARD. In kind it is functional, cell-based, HEK-293T. Set-up: mode of action Agonist, recommended concentration 1 uM.
Assay [8] has as its target Nuclear receptor subfamily 1 group I member 3 (Homo sapiens, UniProt Q14994). Briefly: Affinity On-target Cellular interaction: (Reporter gene assay (HEK293T cells)) EUB0000551aCl NR1I3. In kind it is functional, cell-based, HEK-293T. Set-up: mode of action Antagonist, recommended concentration 1 uM.
For assay [9], the target named is Nucleotide triphosphate diphosphatase NUDT15 (Homo sapiens) (UniProt Q9NV35). Briefly: Affinity On-target Cellular interaction: (Cellular thermal shift assay, HL-60 cells) EUB0002330a NUDT15. In kind it is functional, cell-based. More on the design: recommended concentration 1 uM. As to conditions: Affinity On-target Cellular Source Knowledge https://www.nature.com/articles/s41589-020-0592-z.

Assay [10] concerns the target T1, Peroxisome proliferator-activated receptor alpha. Briefly: Affinity On-target Cellular interaction: (Reporter gene assay (HEK293T cells)) EUB0001150a PPARA. In kind it is functional, cell-based, HEK-293T. Set-up: mode of action Antagonist, recommended concentration 10 uM.
Assay [11] concerns the target T2, Peroxisome proliferator-activated receptor gamma. Briefly: Affinity On-target Cellular interaction: (Reporter gene assay (HEK293T cells)) EUB0001150a PPARG. Set-up: mode of action Antagonist, recommended concentration 10 uM. In kind it is functional, cell-based, HEK-293T.
Assay [12] concerns the target T5, Oxysterols receptor LXR-beta. Briefly: Affinity On-target Cellular interaction: (Reporter gene assay (HEK293T cells)) EUB0000572aCl NR1H2. Set-up: mode of action Agonist, recommended concentration 3 uM. In kind it is functional, cell-based, HEK-293T.

Chain of Bile acid receptor (Q96RI1 whole entry): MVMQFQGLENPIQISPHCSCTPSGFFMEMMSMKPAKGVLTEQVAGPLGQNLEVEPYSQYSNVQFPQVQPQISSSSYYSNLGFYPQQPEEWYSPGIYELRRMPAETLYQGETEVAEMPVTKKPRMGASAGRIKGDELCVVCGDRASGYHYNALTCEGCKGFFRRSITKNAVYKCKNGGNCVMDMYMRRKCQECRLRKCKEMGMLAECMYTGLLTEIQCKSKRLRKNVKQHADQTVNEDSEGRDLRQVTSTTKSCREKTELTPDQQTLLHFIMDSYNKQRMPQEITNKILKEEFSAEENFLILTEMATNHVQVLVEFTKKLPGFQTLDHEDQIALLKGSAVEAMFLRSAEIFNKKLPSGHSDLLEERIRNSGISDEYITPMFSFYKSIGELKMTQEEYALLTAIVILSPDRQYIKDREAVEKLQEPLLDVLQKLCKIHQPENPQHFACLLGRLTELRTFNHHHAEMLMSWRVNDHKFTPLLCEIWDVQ
Chain of Nucleotide triphosphate diphosphatase NUDT15 (Homo sapiens) (Q9NV35 whole entry): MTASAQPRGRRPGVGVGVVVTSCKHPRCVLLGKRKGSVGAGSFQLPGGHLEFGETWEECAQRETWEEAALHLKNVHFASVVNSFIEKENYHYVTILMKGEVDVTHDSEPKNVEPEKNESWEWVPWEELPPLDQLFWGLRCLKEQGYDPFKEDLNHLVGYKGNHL
Chain of Vitamin D3 receptor (P11473 whole entry): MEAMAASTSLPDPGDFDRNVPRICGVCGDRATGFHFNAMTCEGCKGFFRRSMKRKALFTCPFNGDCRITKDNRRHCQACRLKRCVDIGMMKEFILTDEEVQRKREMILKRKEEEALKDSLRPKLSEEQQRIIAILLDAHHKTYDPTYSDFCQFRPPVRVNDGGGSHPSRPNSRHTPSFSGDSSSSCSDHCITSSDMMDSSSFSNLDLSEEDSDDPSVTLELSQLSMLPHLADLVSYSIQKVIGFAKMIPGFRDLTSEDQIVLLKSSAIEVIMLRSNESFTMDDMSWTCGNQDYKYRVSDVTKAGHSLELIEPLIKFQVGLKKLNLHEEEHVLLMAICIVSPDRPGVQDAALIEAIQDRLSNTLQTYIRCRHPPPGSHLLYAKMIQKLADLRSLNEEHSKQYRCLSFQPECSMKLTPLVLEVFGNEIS
Chain of Nuclear receptor subfamily 1 group I member 3 (Q14994 whole entry): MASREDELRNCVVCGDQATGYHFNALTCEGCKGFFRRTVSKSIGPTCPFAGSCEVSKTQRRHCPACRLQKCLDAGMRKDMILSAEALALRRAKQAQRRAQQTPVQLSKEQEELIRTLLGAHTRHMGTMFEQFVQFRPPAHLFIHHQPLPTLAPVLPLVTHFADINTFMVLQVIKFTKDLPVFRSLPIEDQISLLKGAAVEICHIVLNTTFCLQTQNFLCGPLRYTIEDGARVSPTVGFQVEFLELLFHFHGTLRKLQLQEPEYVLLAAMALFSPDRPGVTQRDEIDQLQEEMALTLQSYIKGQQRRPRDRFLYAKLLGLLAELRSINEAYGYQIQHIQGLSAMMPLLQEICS

`CC(C)c1ccc(CC(=O)N2CCC[C@@H](c3cccc(OC(C)(C)C(=O)O)c3)C2)cc1` registered an EC50 in assay [1] of 50 nM.
For `CCO[C@@H](Cc1ccc(OCCc2ccc(OS(C)(=O)=O)cc2)cc1)C(=O)O` [TESAGLITAZAR], the figures for the EC50 in assay [2] and in assay [3] were 290 nM and 130 nM, respectively.
For the compound `COC(=O)/C=C/c1cccc(N(Cc2ccc(-c3ccc(N(C)C)cc3)cc2)C(=O)C2CCCCC2)c1` [FEXARAMINE], it took 960 nM to reach a half-maximal effect on Bile acid receptor (EC50).
In assay [4], `O=C(NCCS(=O)(=O)c1ccc(C(F)(F)F)cn1)c1ccc(Cl)cc1` showed an IC50 of 100 nM.
As to `C=C1/C(=C\C=C2/CCC[C@]3(C)[C@@H]([C@H](C)/C=C/C=C/C(O)(CC)CC)CC[C@@H]23)C[C@@H](O)C[C@@H]1O` [SEOCALCITOL], the midpoint of the response on Vitamin D3 receptor, the EC50, lay at 110 nM.
Regarding `Fc1ccc(-c2c3cccc(C(F)(F)F)c3nn2Cc2ccc(F)cc2Cl)cc1` [LXR-623], the EC50 is 7000 nM in assay [5] and 4000 nM in assay [6].
The compound `Cc1nc(-c2ccc(C(F)(F)F)cc2)sc1C(=O)NCc1ccc(OC(C)(C)C(=O)O)cc1` [GW590735] came in with an EC50 in assay [7] of 160 nM.
In assay [8], `Cc1cccc(CN2CCN(C(c3ccccc3)c3ccc(Cl)cc3)CC2)c1` (centres undefined) displayed an IC50 of 63 nM.
Turning to `O=C(c1ccc2[nH]ccc2c1)N1CCN(S(=O)(=O)c2ccc3[nH]c(=O)oc3c2)CC1`, the K in [9] is 280 nM.
In the case of `COC(=O)c1sccc1S(=O)(=O)Nc1ccc(Nc2ccccc2)cc1OC`, the IC50 in [10] turned out to be 6100 nM; in assay [11], 7600 nM.
`O=C(O)Cc1cccc(OCCCN(Cc2cccc(C(F)(F)F)c2Cl)CC(c2ccccc2)c2ccccc2)c1` returned an EC50 in [12] of 2100 nM.

Usually EC50 stands for the concentration that produces a half-maximal response. Low values mean higher potency in that assay, high ones lower potency in that assay. The term IC50 denotes the concentration at which inhibition is half-maximal. Higher therefore signals a need for much substance.
